≈ marks a conversion by molar mass, not a printed value. Read-outs that look alike come from different tables or passages of the source.

One assay concerns Acinetobacter baumannii. As to the kind of experiment: antibacterial MIC, microtiter dilution. The note with it: read-out: Minimal inhibitory concentration.
For assay [1], the system named is Multidrug resistant S. aureus (MRSA). Briefly: antibacterial MIC, microtiter dilution. The note with it: Staphylococcus aureus, MRSA, read-out: Minimal inhibitory concentration.
A further assay has as its system Escherichia. coli TolC. As to the kind of experiment: antibacterial MIC, microtiter dilution. The settings on record: Escherichia coli, read-out: Minimal inhibitory concentration, E. coli W3110 TolC disruption mutant; Mueller Hinten.
The target of assay [2] is T1, PikCD50N-RhFRED (Streptomyces venezuelae, UniProt O87605, D50N). As to the kind of experiment: substrate binding assay, PikCD50N-RhFRED. Here is the method: The unnatural cyclic carbolide substrate desosaminyl cyclododecane was synthesized to mimic the structure of the natural substrate YC-17 using a recently developed synthetic strategy (Anzai Y, et al. Functional analysis of MycG and MycCI, cytochrome P450 enzymes involved in biosyntheis of mycinamicin macrolide antibiotics. Chem. Biol. 2008 15:950-959), which was subsequently employed as a general approach to derivatize diverse alcohols with desosamine (FIG. 6). The standard assay contains 5 μM PikCD50N—RhFRED, 0.5 mM substrate, 2.5 mM NADPH, 0.25 Unit of glucose-6-phosphate dehydrogenase, and 5 mM glucose-6-phosphate for NADPH regeneration in 100 μl of reaction buffer (50 mM NaH2PO4, pH 7.3, 1 mM EDTA, 0.2 mM dithioerythritol, and 10% glycerol). The reaction was carried out at 30° C. for 3 h and terminated by extraction using 3×200 μl of CHCl3. The resulting organic extract was dried by N2 and redissolved in 120 μl of methanol. The subsequent LC-MS analysis was performed on a ThermoFinnigan LTQ linear ion-trap instrument (Department of Pharmacology, University of Michigan) equipped with electrospray source and Surveyor HPLC system by using an XBridge™ C18 3.5 μm 150 mm reverse-phase HPLC column under following conditions: mobile phase (A=deionized water+0.1% formic acid, B=acetonitrile+0.1% formic acid), 20% B for 3 min, 20-100% B over 25 min, 100% B for 5 min, 100-20% B over 1 min, 20% B for 15 min; flow rate, 0.21 ml/min The substrate binding assays were performed following the previous report (Li et al., supra).
T1 sequence (O87605 other isoform, or with tags, fused parts or gaps D50N): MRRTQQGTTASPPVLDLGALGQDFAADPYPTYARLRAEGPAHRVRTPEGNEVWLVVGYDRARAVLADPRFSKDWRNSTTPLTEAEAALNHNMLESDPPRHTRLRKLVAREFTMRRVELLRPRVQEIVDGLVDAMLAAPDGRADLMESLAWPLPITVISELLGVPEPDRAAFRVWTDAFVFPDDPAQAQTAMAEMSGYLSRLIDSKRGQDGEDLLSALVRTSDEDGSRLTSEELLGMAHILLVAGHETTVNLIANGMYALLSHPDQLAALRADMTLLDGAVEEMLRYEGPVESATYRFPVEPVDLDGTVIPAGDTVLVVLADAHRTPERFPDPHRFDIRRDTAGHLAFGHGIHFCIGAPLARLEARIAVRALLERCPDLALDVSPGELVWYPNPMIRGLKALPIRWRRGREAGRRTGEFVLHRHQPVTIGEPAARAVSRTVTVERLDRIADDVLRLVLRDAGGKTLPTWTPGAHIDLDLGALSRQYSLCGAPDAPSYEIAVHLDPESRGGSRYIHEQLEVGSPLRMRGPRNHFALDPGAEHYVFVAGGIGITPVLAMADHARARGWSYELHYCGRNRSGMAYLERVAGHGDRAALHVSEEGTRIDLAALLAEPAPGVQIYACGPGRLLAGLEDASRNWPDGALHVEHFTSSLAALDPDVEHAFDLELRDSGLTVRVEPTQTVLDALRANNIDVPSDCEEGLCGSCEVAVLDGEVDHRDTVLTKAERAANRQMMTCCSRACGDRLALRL
The decreased binding affinity of desosaminyl cyclododecane could result from […], an entropic penalty upon binding due to high conformational freedom of the saturated ring system, […]) lack of hydrophobic interactions between the functional groups on the macrolactone ring of […] and PikC active site residues, and/or […]) loss of some specific interactions with desosamine as observed in the co-crystal structure with PikC. […] Due to enhanced substrate conversion and ease of use in the absence of expensive exogenous redox partners, PikCD50N—RhFRED was employed to hydroxylate carbolide desosaminyl cyclododecane and all other substrates.

Assay [3] relates to Staphylococcus aureus ATCC6538P. Briefly: antibacterial MIC, microtiter dilution. The settings on record: Staphylococcus aureus, ATCC6538P, read-out: Minimal inhibitory concentration.
For assay [4], the system named is Kocuria rhizophila ATCC9341. Briefly: antibacterial MIC, microtiter dilution. The settings on record: Kocuria rhizophila, ATCC9341, read-out: Minimal inhibitory concentration.
A further assay relates to Deinococcus radiodurans. Briefly: antibacterial MIC, microtiter dilution. The note with it: 60 h.
Another assay concerns S. aureus NorA. As to the kind of experiment: antibacterial MIC, microtiter dilution. The note with it: Staphylococcus aureus, read-out: Minimal inhibitory concentration.
In assay [5] the test system is selected microbial targets. Briefly: antibacterial activity, summary in words. Format: cell-based. Here is the method:
All measurements were performed in duplicate.
The bioactivity of 8 was compared with its synthetic hydroxylated products. Unexpectedly, upon installation of a hydroxyl group at either the C7/C8 or C6/C9 positions (the four authentic standards, each of which contains a pair of diastereomers), the products lost activity. […] Further analysis of these carbolides, and direct investigation of their presumed binding to ribosomal targets will provide important insights into the impact of PikC-mediated regioselective hydroxylation for development of new small molecules for treatment of microbial pathogens and other human diseases.

Assay [6] relates to Bacillus subtillis DHS5333. As to the kind of experiment: antibacterial MIC, microtiter dilution. The note with it: Bacillus, DHS5333, read-out: Minimal inhibitory concentration.
Assay [7] deals with T1, PikCD50N-RhFRED. Format: biochemical. The settings on record: for Number of products: Table 1.
The mark [8] stands for this setting: read-out: Minimal inhibitory concentration, Deinococcus radiodurans, Special media, 30° C.

As to `CC1CC(N(C)C)C(O)C(OC2CCCCCCCCCCCCCC2)O1` (stereo not shown) [Compound 12, 2-(cyclopentadecyloxy)-4-(dimethylamino)-6-methyltetrahydro-2H-pyran-3-ol], the MIC is more than 400 µM with Acinetobacter baumannii; 100 µM (≈ 38.4 µg/mL) in [1]; 50 µM (≈ 19.2 µg/mL) in the assay with Escherichia. coli TolC; 200 µM (≈ 76.7 µg/mL) in assay [3]; 50 µM (≈ 19.2 µg/mL) in assay [4]; 50 µM (≈ 19.2 µg/mL) in the assay on Deinococcus radiodurans (setting [8]). The MIC (in the assay with S. aureus NorA; in assay [6]) was 100 µM (≈ 38.4 µg/mL) each time. In addition, the Kd – broadly, a measure of binding affinity in units of concentration – on PikCD50N-RhFRED [2] is 243 µM. In addition, in [5], the “antibacterial activity in words” value is given as “displayed some inhibitory activities”. At PikCD50N-RhFRED [7] (PikCD50N-RhFRED), this molecule yielded a Number of products of 9.

With `CC1CC(N(C)C)C(O)C(OC2CCCCCCCCCCCC2)O1` (stereo not shown) [Compound 8, 2-(Cyclotridecyloxy)-4-(dimethylamino)-6-methyltetrahydro-2H-pyran-3-ol], the MIC with Acinetobacter baumannii was more than 400 µM; in [1], 200 µM (≈ 71.1 µg/mL); in the assay on Escherichia. coli TolC, 50 µM (≈ 17.8 µg/mL); in assay [3] it was 400 µM (≈ 142 µg/mL); in assay [4], 50 µM (≈ 17.8 µg/mL); in the assay on Deinococcus radiodurans (setting [8]), 100 µM (≈ 35.6 µg/mL). For the same molecule, the MIC (in the assay with S. aureus NorA; in [6]) was 200 µM (≈ 71.1 µg/mL) in each case. This molecule also displayed a Kd on PikCD50N-RhFRED [2] of 218 µM. Moreover, the “antibacterial activity in words” value in [5] is given as “displayed some inhibitory activities”. Besides, on PikCD50N-RhFRED [7] (C7 and C6/C8 for the 12-membered ring, C7/C8 or C6/C9 for the 13-membered ring), the “share of monohydroxylated products oxidized at sites remote from desosamine” value was found to be 94%. At PikCD50N-RhFRED [7] (PikCD50N-RhFRED), this molecule had a Number of products of 6.

For the molecule `CC1CC(N(C)C)C(O)C(OC2CCCCCCCCCCCCC2)O1` (stereo not shown) [Compound 10, 2-(cyclotetradecyloxy)-4-(dimethylamino)-6-methyltetrahydro-2H-pyran-3-ol], the MIC in the assay with Acinetobacter baumannii is more than 400 µM; in assay [1], 400 µM (≈ 148 µg/mL); in the assay on Escherichia. coli TolC it was 50 µM (≈ 18.5 µg/mL); in [3], more than 400 µM; in assay [4], 50 µM (≈ 18.5 µg/mL); in the assay on Deinococcus radiodurans (setting [8]), 50 µM (≈ 18.5 µg/mL). Moreover, the MIC worked out at 400 µM (≈ 148 µg/mL) in the assay on S. aureus NorA and 200 µM (≈ 73.9 µg/mL) in [6]. Also, at PikCD50N-RhFRED [2], the Kd amounted to 289 µM. In addition, the “antibacterial activity in words” value in assay [5] is recorded as “displayed some inhibitory activities”. Also, at PikCD50N-RhFRED [7] (PikCD50N-RhFRED), the Number of products was determined as 6.

As for `OC1CCCCCCCCCCC1` [Cyclododecanol, reference compound], the MIC (in the assay with Acinetobacter baumannii; in assay [1]; in the assay on Escherichia. coli TolC; in assay [3]; in [4]; in the assay with Deinococcus radiodurans (setting [8])) was more than 400 µM in each case. Also, the MIC (with S. aureus NorA; in [6]) was more than 400 µM each time. Further, the “hydroxylation by PikC / ability to serve as substrate, in words” value on PikCD50N-RhFRED [7] was “unable to serve as a substrate”.

On to `CCCCCCC#CCCOC1OC(C)CC(N(C)C)C1O` (stereo not shown) [Compound 17, 2-(Dec-3-ynyloxy)-4-(dimethylamino)-6-methyltetrahydro-2H-pyran-3-ol], for which the MIC (with Acinetobacter baumannii; in assay [1]; in the assay on Escherichia. coli TolC; in assay [3]; in assay [4]; in the assay on Deinococcus radiodurans (setting [8])) was more than 400 µM in each case. The MIC (in the assay on S. aureus NorA; in assay [6]) was more than 400 µM each time. This molecule displayed a Kd on PikCD50N-RhFRED [2] of 2900 µM. The molecule also returned a Number of products on PikCD50N-RhFRED [7] (PikCD50N-RhFRED) of 5.

As to `CC1CC(N(C)C)C(O)C(OC2CCCC3CCCCC32)O1` (stereo not shown) [Compound 14, 2-(Decahydronaphthalen-1-yloxy)-4-(dimethylamino)-6-methyltetrahydro-2H-pyran-3-ol], the MIC (with Acinetobacter baumannii; in assay [1]; with Escherichia. coli TolC; in assay [3]; in assay [4]; with Deinococcus radiodurans (setting [8])) was more than 400 µM throughout. Further, the MIC (with S. aureus NorA; in [6]) was more than 400 µM in each case. This molecule also displayed a Number of products on PikCD50N-RhFRED [7] (PikCD50N-RhFRED) of 0.

Consider `CC1CC(N(C)C)C(O)C(OC2CCCCC2)O1` (stereo not shown) [Compound 13, 2-(Cyclohexyloxy)-4-(dimethylamino)-6-methyltetrahydro-2H-pyran-3-ol], for which the MIC (in the assay on Acinetobacter baumannii; in assay [1]; with Escherichia. coli TolC; in assay [3]; in [4]; with Deinococcus radiodurans (setting [8])) was more than 400 µM throughout. Besides, the MIC (in the assay with S. aureus NorA; in assay [6]) was more than 400 µM in each case. For the same molecule, the Number of products on PikCD50N-RhFRED [7] (PikCD50N-RhFRED) came to 0.

Regarding `CC1CC(N(C)C)C(O)C(Oc2ccc3ccc4cccc5ccc2c3c45)O1` (stereo not shown) [Compound 19, 4-(Dimethylamino)-6-methyl-2-(pyren-1-yloxy)tetrahydro-2H-pyran-3-ol], the MIC turned out to be 100 µM (≈ 37.5 µg/mL) in the assay with Acinetobacter baumannii; 25 µM (≈ 9.39 µg/mL) in assay [1]; 25 µM (≈ 9.39 µg/mL) in the assay on Escherichia. coli TolC; 25 µM (≈ 9.39 µg/mL) in assay [3]; 25 µM (≈ 9.39 µg/mL) in [4]; 25 µM (≈ 9.39 µg/mL) in the assay on Deinococcus radiodurans (read-out: Minimal inhibitory concentration). The MIC in the assay with S. aureus NorA was 25 µM (≈ 9.39 µg/mL); in [6], 6.2 µM (≈ 2.33 µg/mL). Moreover, the Kd on PikCD50N-RhFRED [2] is more than 5000 µM. Besides, at PikCD50N-RhFRED [7] (PikCD50N-RhFRED), the “number of oxidized products” value is “single”. This molecule also showed a Number of products at PikCD50N-RhFRED [7] (PikCD50N-RhFRED) of 1.

The record behind these values is patent US20120190635A1, “SELECTIVE OXIDATION OF C-H BONDS OF MODIFIED SUBSTRATES BY P450 MONOOXYGENASE” (THE REGENTS OF THE UNIVERSITY OF MICHIGAN, priority 2009, published 2012).
